Biological target: human DGKζ (Homo sapiens (Human), UniProt Q13574)
Experiment: Human DGKζ kinase activity inhibition assay (ADP-Glo)
Format: biochemical
Conditions: in vitro human DGKζ kinase activity inhibition assay; read-out: IC50
How it was run: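 ADP-Glo luminescence, reflecting ADP produced, served as the readout of activity. Full-length human DGKζ, FLAG-tagged at the C-terminus and insect-cell expressed, was used; lipid substrate mix was sonicated with octyl-β-D-glucopyranoside in 50 mM MOPS pH 7.4.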

Sequence of human DGKζ (Q13574 other isoform, or with tags, fused parts or gaps): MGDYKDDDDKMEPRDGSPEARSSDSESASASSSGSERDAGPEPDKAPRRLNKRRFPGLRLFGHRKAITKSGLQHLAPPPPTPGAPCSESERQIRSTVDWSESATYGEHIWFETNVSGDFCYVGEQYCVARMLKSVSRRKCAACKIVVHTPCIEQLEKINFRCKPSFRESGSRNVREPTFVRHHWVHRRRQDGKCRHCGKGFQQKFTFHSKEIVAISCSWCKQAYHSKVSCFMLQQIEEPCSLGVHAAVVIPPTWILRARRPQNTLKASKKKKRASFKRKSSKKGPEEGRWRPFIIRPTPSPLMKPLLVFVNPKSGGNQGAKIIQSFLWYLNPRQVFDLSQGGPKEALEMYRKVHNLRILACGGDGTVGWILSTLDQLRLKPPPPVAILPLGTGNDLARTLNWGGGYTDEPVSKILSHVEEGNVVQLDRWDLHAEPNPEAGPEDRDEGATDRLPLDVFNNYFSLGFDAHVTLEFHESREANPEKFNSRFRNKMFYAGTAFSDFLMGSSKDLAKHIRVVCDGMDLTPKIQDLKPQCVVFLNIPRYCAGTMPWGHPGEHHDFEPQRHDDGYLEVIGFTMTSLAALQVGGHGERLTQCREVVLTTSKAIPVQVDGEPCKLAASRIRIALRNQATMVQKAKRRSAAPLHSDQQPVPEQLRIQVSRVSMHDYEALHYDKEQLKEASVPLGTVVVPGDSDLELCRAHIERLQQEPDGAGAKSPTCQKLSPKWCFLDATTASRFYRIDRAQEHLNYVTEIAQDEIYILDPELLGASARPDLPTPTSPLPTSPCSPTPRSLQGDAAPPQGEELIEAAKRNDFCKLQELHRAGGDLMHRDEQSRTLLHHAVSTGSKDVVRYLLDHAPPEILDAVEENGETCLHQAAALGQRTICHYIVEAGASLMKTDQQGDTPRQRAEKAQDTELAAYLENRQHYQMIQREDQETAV

Row | IC50 | SMILES
1 | 32 nM | CC(C(N)=O)N(c1ccc(OC(F)F)nc1)c1nc(N)c(C(=O)c2ccc(OC(F)F)cc2)s1 (racemic) [Example 254, rac-2-[[4-amino-5-[4-(difluoromethoxy)benzoyl]thiazol-2-yl]-[6-(difluoromethoxy)-3-pyridyl]amino]propanamide]
2 | 1050 nM | CC(Oc1ccc(C(=O)c2sc(N(c3ccccc3)C(C)C(N)=O)nc2N)cc1)C(N)=O (single isomer, unassigned) [Example 45.3, 2-(N-[4-amino-5-[4-[2-amino-1-methyl-2-oxo-ethoxy]benzoyl]thiazol-2-yl]anilino)propanamide]
3 | 3790 nM | COc1ccc(N(c2nc(N)c(C(=O)c3ccc(OC(F)F)cc3)s2)C(C)C(N)=O)cc1 (single isomer, unassigned) [Example 174.2, 2-(N-[4-amino-5-[4-(difluoromethoxy)benzoyl]thiazol-2-yl]-4-methoxy-anilino)propanamide]
4 | 7 nM | CC(C(N)=O)N(c1ccc(F)cc1)c1nc(N)c(C(=O)c2ccc(OCc3ccccc3)cc2)s1 (racemic) [Example 170, rac-2-(N-[4-amino-5-(4-benzyloxybenzoyl)thiazol-2-yl]-4-fluoro-anilino)propanamide]
5 | 31 nM | CC(C(N)=O)N(c1ccc(F)cc1)c1nc(N)c(C(=O)c2ccc(O)cc2)s1 (single isomer, unassigned) [Example 286, 2-(N-[4-amino-5-(4-hydroxybenzoyl)thiazol-2-yl]-4-fluoro-anilino)propanamide (single enantiomer)]
6 | 2270 nM | CCC(C(N)=O)N(c1ccccc1)c1nc(N)c(C(=O)c2ccccc2)s1 (racemic) [Example 67, rac-2-[(4-amino-5-benzoyl-1,3-thiazol-2-yl)(phenyl)amino]butanamide]
7 | 82.1 nM | Cc1ccc(N(c2nc(N)c(C(=O)c3ccccc3)s2)C(C)C(N)=O)cc1 (single isomer, unassigned) [Example 73.2, 2-(N-(4-amino-5-benzoyl-thiazol-2-yl)-4-methyl-anilino)propanamide]
8 | 46 nM | COc1ccc(C(=O)c2sc(N(c3ccc(Cl)c(F)c3)C(C)C(N)=O)nc2N)cn1 (racemic) [Example 172, rac-2-(N-[4-amino-5-(6-methoxypyridine-3-carbonyl)thiazol-2-yl]-4-chloro-3-fluoro-anilino)propanamide]
9 | 76 nM | CC(C(N)=O)N(c1ccc(OC(F)F)nc1)c1nc(N)c(C(=O)c2ccc(OC(F)F)nc2)s1 (racemic) [Example 255, rac-2-[[4-amino-5-[6-(difluoromethoxy)pyridine-3-carbonyl]thiazol-2-yl]-[6-(difluoromethoxy)-3-pyridyl]amino]propanamide]
10 | 190 nM | CC(C(N)=O)N(c1ccc(F)cc1)c1nc(N)c(C(=O)c2ccc(O)cc2)s1 (racemic) [Example 157, rac-2-(N-[4-amino-5-(4-hydroxybenzoyl)thiazol-2-yl]-4-fluoro-anilino)propanamide]
11 | 69.6 nM | CC(C(N)=O)N(c1ccc(OC(F)(F)F)cc1)c1nc(N)c(C(=O)c2ccc(F)cc2)s1 (racemic) [Example 27, rac-2-[N-[4-amino-5-(4-fluorobenzoyl)thiazol-2-yl]-4-(trifluoromethoxy)anilino]propanamide]

Row | SMILES | IC50
12 | COc1ccc(NC(=O)COc2ccc(C(=O)c3sc(N(c4ccc(F)cc4)C(C)C(N)=O)nc3N)cc2)cc1 (racemic) [Example 117, rac-2-(N-[4-amino-5-[4-[2-(4-methoxyanilino)-2-oxo-ethoxy]benzoyl]thiazol-2-yl]-4-fluoro-anilino)propanamide] | 14.9 nM
13 | Cc1cccc(NC(=O)COc2ccc(C(=O)c3sc(N(c4ccc(F)cc4)C(C)C(N)=O)nc3N)cc2)c1 (racemic) [Example 87, rac-2-(N-[4-amino-5-[4-[2-(3-methylanilino)-2-oxo-ethoxy]benzoyl]thiazol-2-yl]-4-fluoro-anilino)propanamide] | 8.53 nM

From patent publication US11964953B2, “Substituted aminothiazoles as DGKzeta inhibitors for immune activation” (Bayer Aktiengesellschaft, priority 2020, dated 2024)
